Results from patent US11780802B2, “Organic sulfonic acid salts of amino acid esters and process for their preparation” (priority 2017, dated 2023).

Test: Stability in alkaline solution (residual ester bonds by 1H-NMR after storage)
Type: physicochemical
Details: 7 d, 50 wt % in water
Experimental: To determine the stability under alkaline conditions, 50 wt % of the organic sulfonic acid salt of an amino acid ester is dissolved in water, pH is adjusted with sodium hydroxide to pH 8.5. The aqueous solution or emulsion is stored for 7 days at room temperature and 40° C. Before storage the integral of CH2-O—CO— (^1H-NMR in MeOD, ˜4.2 ppm) is measured. The stability of organic sulfonic acid salt of an amino acid ester is indicated by measuring the integral of CH2-O—CO— (^1H-NMR in MeOD) after storage.

With `CCCCC(CC)COC(=O)CCCCCN.CCCCCCCCCCCCc1ccc(S(=O)(=O)O)cc1` [Example 11, 6-amino-hexane acid-2-ethylhexylester 4-dodecylbenzene sulfonic acid salt] the “Residual amount of ester bonds after storage, calculated from 1H-NMR in MeOD” value (shortened to “Residual amount … calculated from 1H-NMR in MeOD”) (pH 8.5, 40° C.) was 100% and the “Residual amount … calculated from 1H-NMR in MeOD” value (pH 8.5, RT) was 100%.

In the case of `CCCCC(CC)COC(=O)C(C)N.CS(=O)(=O)O` (stereo not drawn) [compound 4], the “Residual amount … calculated from 1H-NMR in MeOD” value (pH 8.5, 40° C.) is reported as 46% and the “Residual amount … calculated from 1H-NMR in MeOD” value (pH 8.5, RT) is reported as 72%.

For `CCCCC(CC)COC(=O)CN.CS(=O)(=O)O` (stereo not drawn) [compound 3], the “Residual amount … calculated from 1H-NMR in MeOD” value (pH 8.5, 40° C.) was 20% and the “Residual amount … calculated from 1H-NMR in MeOD” value (pH 8.5, RT) was 37%.
